In brackets after ≈: the same amount, converted by molar mass.
Legend:
[1] = test system: Mycolicibacterium smegmatis; assay: Antimicrobial activity against Mycobacterium smegmatis; assay type: functional
[2] = test system: Mycobacterium tuberculosis; assay: Antitubercular activity against Mycobacterium tuberculosis H37Rv assessed as growth inhibition; assay type: functional
[3] = test system: Mycolicibacterium smegmatis; assay: Antimicrobial activity against Mycobacterium smegmatis assessed as intracellular bacterial killing; assay type: functional
[4] = test system: Mycobacterium tuberculosis; assay: Antitubercular activity against drug-susceptible Mycobacterium tuberculosis clinical isolates assessed as growth inhibition; assay type: functional
[5] = test system: Mycobacterium tuberculosis; assay: Antitubercular activity against Mycobacterium tuberculosis assessed as growth inhibition by alamar blue assay; assay type: functional
[6] = test system: Mycobacterium tuberculosis; assay: Antitubercular activity against Mycobacterium tuberculosis assessed as growth inhibition; assay type: functional
[7] = test system: Mycobacterium tuberculosis; assay: Antitubercular activity against Mycobacterium tuberculosis infected in mouse assessed as reduction in colony formation at 20 mg/kg for 20 days; assay type: functional
[8] = Oral bioavailability in dog; assay type: ADME, organism-based, Canis lupus familiaris; conditions: in vivo
Mycobacterium avium = assay: Antimycobacterial activity against Mycobacterium avium assessed as growth inhibition; assay type: functional
[9] = test system: Mycobacterium tuberculosis; assay: Antitubercular activity against XDR clinical isolates Mycobacterium tuberculosis […] assessed as growth inhibition in presence of […] clavulanate; assay type: functional
[10] = test system: Mycobacterium tuberculosis; assay: Antitubercular activity against Mycobacterium tuberculosis infected in mouse J774A.1 assessed as reduction in bacterial count; assay type: functional
[11] = test system: Mycobacterium tuberculosis; assay: Antitubercular activity against Mycobacterium tuberculosis H37Rv assessed as growth inhibition in presence of […] clavulanate; assay type: functional

Which results are given for `C[C@H]1COC2(CCN(c3nc(=O)c4cc(C(F)(F)F)cc([N+](=O)[O-])c4s3)CC2)O1` [BTZ-043]?
MIC [1]: 0.004 µg/mL (≈ 0.00927 µM); MIC [2]: 0.001 µg/mL; MIC [3]: < 0.01 µg/mL

What does the source list for `COc1nc2ccc(Br)cc2cc1[C@@H](c1ccccc1)[C@@](O)(CCN(C)C)c1cccc2ccccc12` [BEDAQUILINE]?
MIC [4]: 0.002 µg/mL (≈ 0.0036 µM); MBC90 [5]: 2 µg/mL (≈ 3.6 µM); WCC90 [5]: 1 µg/mL

Which MIC [2] does the source give for `O=[N+]([O-])c1cn2c(n1)OC[C@@H](OCc1ccc(OC(F)(F)F)cc1)C2` [PRETOMANID] here?
Its MIC is 0.13 µg/mL.

Which MIC [6] does the source give for `CC(=O)NC[C@H]1CN(c2ccc(N3CCOCC3)c(F)c2)C(=O)O1` [LINEZOLID] here?
Its MIC is less than 1 µg/mL.

Which results are given for `COc1ncccc1Nc1cc2nc3ccccc3n(-c3ccc(OC(F)(F)F)cc3)c-2c/c1=N\C1CCC(OC)CC1` (stereo not drawn)?
MIC [2]: > 25 µg/mL; log10cfu [7]: 4.66

What does the source list for `CC(C)/N=c1\cc2n(-c3ccc(Cl)cc3)c3ccccc3nc-2cc1Nc1ccc(Cl)cc1` [CLOFAZIMINE]?
MIC [2]: 1.21 µg/mL; log10cfu [7]: 6.33; MIC [6]: 0.12 µg/mL (≈ 0.253 µM)

Which MIC [2] does the source give for `CCCCCCCN1CCN(c2nc(=O)c3cc(C(F)(F)F)cc([N+](=O)[O-])c3s2)CC1` here?
The MIC was 0.00019 µg/mL.

Which MIC90 [6] does the source give for `COc1c(N2CC3(CC3)[C@](C)(N)C2)c(F)cc2c(=O)c(C(=O)O)cn([C@@H]3C[C@@H]3F)c12` here?
Its MIC90 is 0.06 µg/mL (≈ 0.143 µM).

With `CC(C)=CCC/C(C)=C/CNCCNC1C2CC3CC(C2)CC1C3` (stereo not drawn) [SQ109] as the compound, how does the MIC [4] read?
Its MIC is 0.2 µg/mL (≈ 0.605 µM).

And the bioavailability [8]?
The bioavailability was 2.4%.

For `C[C@@]1(COc2ccc(N3CCC(Oc4ccc(OC(F)(F)F)cc4)CC3)cc2)Cn2c([N+](=O)[O-])cnc2O1`, which MIC [2] is on record?
Its MIC is 0.012 µg/mL.

With `O=C([C@@H](O)CO)N1CC=C(c2c(F)cc(N3C[C@H](COc4ccon4)OC3=O)cc2F)CC1` [POSIZOLID] as the compound, how does the MIC [2] read?
The MIC was 1 µg/mL.

Which results are given for `CO[C@H]1/C=C/O[C@@]2(C)Oc3c(C)c(O)c4c(c3C2=O)C2=NC3(CCN(CC(C)C)CC3)NC2=C(NC(=O)/C(C)=C\C=C\[C@H](C)[C@H](O)[C@@H](C)[C@@H](O)[C@@H](C)[C@H](OC(C)=O)[C@@H]1C)C4=O` [RIFABUTIN]?
MIC (Mycobacterium avium): 0.06 µg/mL (≈ 0.0708 µM); MIC [2]: 0.015 µg/mL

Which MIC90 [9] does the source give for `CCc1nc2ccc(Cl)cn2c1C(=O)NCc1ccc(N2CCC(c3ccc(OC(F)(F)F)cc3)CC2)cc1` [TELACEBEC] here?
Its MIC90 is less than 0.43 nM.

What about the MIC [2] of the same compound?
Its MIC is 2.7 nM.

For `O=c1nc(N2CCN(CC3CCCCC3)CC2)sc2c([N+](=O)[O-])cc(C(F)(F)F)cc12` [MACOZINONE], which MIC [2] is on record?
Its MIC is 0.00019 µg/mL.

Which MIC [3] does the source give for `NNC(=O)c1ccncc1` [ISONIAZID] here?
Its MIC is 0.1 µg/mL (≈ 0.729 µM).

Which MIC [2] does the source give for `O=c1nc(N2CCN(CCC3CCCCC3)CC2)sc2c([N+](=O)[O-])cc(C(F)(F)F)cc12` here?
Its MIC is 0.00019 µg/mL.

For `O=c1nc(N2CCN(CCCCOc3ccccc3)CC2)sc2c([N+](=O)[O-])cc(C(F)(F)F)cc12`, which MIC [2] is on record?
The MIC was 0.00019 µg/mL.

For `CC(=O)NC[C@H]1CN(c2ccc(N3CCSCC3)c(F)c2)C(=O)O1` [SUTEZOLID], which MIC [6] is on record?
Its MIC is 0.125 µg/mL (≈ 0.354 µM).

What does the source list for `CC1(C)S[C@@H]2[C@H](NC(=O)[C@H](N)c3ccc(O)cc3)C(=O)N2[C@H]1C(=O)O` [AMOXICILLIN]?
MIC [9]: 0.23 µg/mL; fold change (FC) [10]: 1.5; MIC [11]: 0.32 µg/mL

For `O=c1nc(N2CCN(CCCCc3ccccc3)CC2)sc2c([N+](=O)[O-])cc(C(F)(F)F)cc12`, which MIC [2] is on record?
The MIC was 0.00019 µg/mL.

Which MIC [3] does the source give for `CO[C@H]1/C=C/O[C@@]2(C)Oc3c(C)c(O)c4c(O)c(c(/C=N/N5CCN(C)CC5)c(O)c4c3C2=O)NC(=O)/C(C)=C\C=C\[C@H](C)[C@H](O)[C@@H](C)[C@@H](O)[C@@H](C)[C@H](OC(C)=O)[C@@H]1C` [RIFAMPIN] here?
Its MIC is less than 1 µg/mL.

— ChEMBL document CHEMBL3352501, “SAR analysis of new anti-TB drugs currently in pre-clinical and clinical development” (Eur J Med Chem, 2014)
